In patent publication US20230285514A1, “STAPLED LACTAM CO-AGONISTS OF THE GLUCAGON AND GLP-1 RECEPTORS” (Merck Sharp & Dohme LLC, priority 2019, published 2023):
*1 amine or outer side, *2 acyl side, *3 side chain or, on linkers, in order; H or OH if unused. Where a SMILES comes first, the peptide text is derived from it. Bridges are numbered along the chain shown (N, C = ends). Side-chain parts run from the residue outwards. [ ]: non-standard residue; d: D form. The star is where a group is joined. γGlu = O=C(O)[C@H](CCC(=O)[*:2])N[*:1]; Palmitoyl = CCCCCCCCCCCCCCCC(=O)*; Nle = CCCC[C@H](N)C(=O)O; Aib = CC(C)(N)C(=O)O

Target: T1, human GCGR (Homo sapiens, UniProt P47871)
T1 construct: expressed in transfected cells
T1 sequence (P47871 26-477): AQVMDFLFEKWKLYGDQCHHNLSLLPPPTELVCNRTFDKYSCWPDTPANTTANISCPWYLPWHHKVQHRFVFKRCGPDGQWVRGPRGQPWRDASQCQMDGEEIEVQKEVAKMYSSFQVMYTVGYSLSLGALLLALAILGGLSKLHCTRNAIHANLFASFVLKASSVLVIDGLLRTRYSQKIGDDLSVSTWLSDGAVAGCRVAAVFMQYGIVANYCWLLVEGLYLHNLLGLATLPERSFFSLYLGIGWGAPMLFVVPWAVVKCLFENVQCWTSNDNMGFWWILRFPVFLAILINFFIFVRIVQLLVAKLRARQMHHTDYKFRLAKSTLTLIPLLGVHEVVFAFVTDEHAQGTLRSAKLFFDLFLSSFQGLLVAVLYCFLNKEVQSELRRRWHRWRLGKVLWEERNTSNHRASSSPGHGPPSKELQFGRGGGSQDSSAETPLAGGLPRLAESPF
Assay: cAMP activity assay, cells expressing human GCGR
Assay type: cell-based
Settings: for hGCGR/hGLPIR (hTone): ratio of human GCGR EC50 to human GLP1R EC50
Description: Activity of the peptides at the Glucagon receptor (GCGR) and GLP-1 receptor (GLP1R) was measured in a cAMP activity assay. Peptides were dissolved in 100% DMSO and serially diluted to generate 10 point titrations. The peptide solutions were then transferred into 384-well assay plates (150 nL/well). Assay ready frozen cells expressing human GLP1R or human GCGR were suspended in growth media consisting of DMEM medium (GIBCO), 10% FBS (GIBCO), 1×NEAA(GIBCO), 1×P/S (GIBCO), 10 ug/ml Blasticidin (GIBCO) and 200 μg/mL Hygromycin (GIBCO). […] The cell suspensions (15 μL) were then added to the assay plates containing the peptide solutions (30,000 cells/well for human GCGR; 10,000 cells/well for human GLP1R). […] Production of cAMP was determined using […] kits (DiscoverX) following manufacturer protocol. The plates were incubated for overnight at room temperature in the dark. Luminescence was measured using an EnVision Multilabel plate reader (Perkin Elmer). Native GLP-1 and Glucagon (Bachem) are used as control peptides.

CCCCCCCCCCCCCCCC(=O)N[C@@H](CCC(=O)N[C@@H](CCC(=O)NCCCC[C@H](NC(=O)[C@H](CC(=O)O)NC(=O)[C@H](CO)NC(=O)[C@@H](NC(=O)[C@H](Cc1ccccc1)NC(=O)[C@@H](NC(=O)CNC(=O)[C@H](CCC(N)=O)NC(=O)C(C)(C)NC(=O)[C@@H](N)Cc1c[nH]cn1)[C@@H](C)O)[C@@H](C)O)C(=O)N[C@@H](CO)C(=O)N[C@@H](CCCCN)C(=O)N[C@@H](Cc1ccc(O)cc1)C(=O)N[C@@H](CC(C)C)C(=O)N[C@@H](CC(=O)O)C(=O)N[C@H]1CCCCNC(=O)CC[C@@H](C(=O)N[C@@H](CC(=O)O)C(=O)N[C@@H](Cc2ccccc2)C(=O)N[C@H](C(=O)N[C@@H](CCC(N)=O)C(=O)N[C@@H](Cc2c[nH]c3ccccc23)C(=O)N[C@@H](CC(C)C)C(=O)N[C@@H](CCCC)C(=O)N[C@@H](CC(=O)O)C(=O)N[C@H](C(N)=O)[C@@H](C)O)C(C)C)NC(=O)[C@H](C)NC(=O)[C@H](C)NC(=O)[C@H](CCCNC(=N)N)NC1=O)C(=O)O)C(=O)O [SEQ ID NO: 14] (H-H[Aib]QGTFTSDK([γGlu-γGlu-Palmitoyl])SKYLDKRAAEDFVQWL[Nle]DT-NH2; lactam 16-20; N-terminus assumed)
hGCGR/hGLPIR (hTone): 1.41

CCCCCCCCCCCCCCCC(=O)N[C@@H](CCC(=O)N[C@@H](CCC(=O)NCCCC[C@H](NC(=O)[C@H](CC(=O)O)NC(=O)[C@H](CO)NC(=O)[C@@H](NC(=O)[C@H](Cc1ccccc1)NC(=O)[C@@H](NC(=O)CNC(=O)[C@H](CCC(N)=O)NC(=O)[C@@H](CO)NC(=O)[C@@H](N)Cc1c[nH]cn1)[C@@H](C)O)[C@@H](C)O)C(=O)N[C@@H](CO)C(=O)N[C@@H](CCCCN)C(=O)N[C@@H](Cc1ccc(O)cc1)C(=O)N[C@@H](CC(C)C)C(=O)N[C@@H](CC(=O)O)C(=O)N[C@@H](C)C(=O)N[C@@H](CCCNC(=N)N)C(=O)N[C@@H](C)C(=O)N[C@@H](C)C(=O)N[C@@H](CCC(N)=O)C(=O)N[C@@H](CC(=O)O)C(=O)N[C@@H](Cc1ccccc1)C(=O)N[C@H](C(=O)N[C@H]1CCCCNC(=O)CC[C@@H](C(=O)N[C@H](C(N)=O)[C@@H](C)O)NC(=O)[C@H](CC(C)C)NC(=O)[C@H](CC(C)C)NC(=O)[C@H](Cc2c[nH]c3ccccc23)NC1=O)C(C)C)C(=O)O)C(=O)O [SEQ ID NO: 13] (H-H[dS]QGTFTSDK([γGlu-γGlu-Palmitoyl])SKYLDARAAQDFVKWLLET-NH2; lactam 24-28; N-terminus assumed)
hGCGR/hGLPIR (hTone): 0.56

CCCCCCCCCCCCCCCC(=O)N[C@@H](CCC(=O)N[C@@H](CCC(=O)NCCCC[C@H](NC(=O)[C@H](CC(=O)O)NC(=O)[C@H](CO)NC(=O)[C@@H](NC(=O)[C@H](Cc1ccccc1)NC(=O)[C@@H](NC(=O)CNC(=O)[C@H](CCC(N)=O)NC(=O)C(C)(C)NC(=O)[C@@H](N)Cc1c[nH]cn1)[C@@H](C)O)[C@@H](C)O)C(=O)N[C@@H](CO)C(=O)N[C@@H](CCCCN)C(=O)N[C@@H](Cc1ccc(O)cc1)C(=O)N[C@@H](CC(C)C)C(=O)N[C@@H](CC(=O)O)C(=O)NC(C)(C)C(=O)N[C@@H](CCCNC(=N)N)C(=O)N[C@@H](C)C(=O)N[C@@H](C)C(=O)N[C@H]1CCCCNC(=O)CC[C@@H](C(=O)N[C@@H](Cc2c[nH]c3ccccc23)C(=O)N[C@@H](CC(C)C)C(=O)N[C@@H](CCCC)C(=O)N[C@@H](CC(=O)O)C(=O)N[C@H](C(N)=O)[C@@H](C)O)NC(=O)[C@H](C(C)C)NC(=O)[C@H](Cc2ccccc2)NC(=O)[C@H](CC(=O)O)NC1=O)C(=O)O)C(=O)O [SEQ ID NO: 15] (H-H[Aib]QGTFTSDK([γGlu-γGlu-Palmitoyl])SKYLD[Aib]RAAKDFVEWL[Nle]DT-NH2; lactam 20-24; N-terminus assumed)
hGCGR/hGLPIR (hTone): 2.61

CCCCCCCCCCCCCCCC(=O)N[C@@H](CCC(=O)N[C@@H](CCC(=O)NCCCC[C@H](NC(=O)[C@H](CC(=O)O)NC(=O)[C@H](CO)NC(=O)[C@@H](NC(=O)[C@H](Cc1ccccc1)NC(=O)[C@@H](NC(=O)CNC(=O)[C@H](CCC(N)=O)NC(=O)[C@@H](CO)NC(=O)[C@@H](N)Cc1c[nH]cn1)[C@@H](C)O)[C@@H](C)O)C(=O)N[C@@H](CO)C(=O)N[C@@H](CCCCN)C(=O)N[C@@H](Cc1ccc(O)cc1)C(=O)N[C@@H](CC(C)C)C(=O)N[C@@H](CC(=O)O)C(=O)N[C@@H](C)C(=O)N[C@H]1CCCCNC(=O)CC[C@@H](C(=O)N[C@@H](Cc2ccccc2)C(=O)N[C@H](C(=O)N[C@@H](CCC(N)=O)C(=O)N[C@@H](Cc2c[nH]c3ccccc23)C(=O)N[C@@H](CC(C)C)C(=O)N[C@@H](CC(C)C)C(=O)N[C@@H](CC(=O)O)C(=O)N[C@H](C(N)=O)[C@@H](C)O)C(C)C)NC(=O)[C@H](CCC(N)=O)NC(=O)[C@H](C)NC(=O)[C@H](C)NC1=O)C(=O)O)C(=O)O [SEQ ID NO: 12]
EC50 (cAMP production, cells expressing human GCGR, 1 hour, table does not say whether with or without 20% human serum): 60 pM
hGCGR/hGLPIR (hTone): 0.8

CCCCCCCCCCCCCCCC(=O)N[C@@H](CCC(=O)N[C@@H](CCC(=O)NCCCC[C@H](NC(=O)[C@H](CC(=O)O)NC(=O)[C@H](CO)NC(=O)[C@@H](NC(=O)[C@H](Cc1ccccc1)NC(=O)[C@@H](NC(=O)CNC(=O)[C@H](CCC(N)=O)NC(=O)[C@@H](CO)NC(=O)[C@@H](N)Cc1c[nH]cn1)[C@@H](C)O)[C@@H](C)O)C(=O)N[C@@H](CO)C(=O)N[C@@H](CCCCN)C(=O)N[C@@H](Cc1ccc(O)cc1)C(=O)N[C@@H](CC(C)C)C(=O)N[C@@H](CC(=O)O)C(=O)N[C@H]1CCCCNC(=O)CC[C@@H](C(=O)N[C@@H](CC(=O)O)C(=O)N[C@@H](Cc2ccccc2)C(=O)N[C@H](C(=O)N[C@@H](CCC(N)=O)C(=O)N[C@@H](Cc2c[nH]c3ccccc23)C(=O)N[C@@H](CC(C)C)C(=O)N[C@@H](CC(C)C)C(=O)N[C@@H](CC(=O)O)C(=O)N[C@H](C(N)=O)[C@@H](C)O)C(C)C)NC(=O)[C@H](C)NC(=O)[C@H](C)NC(=O)[C@H](CCCNC(=N)N)NC1=O)C(=O)O)C(=O)O [SEQ ID NO: 10] (H-H[dS]QGTFTSDK([γGlu-γGlu-Palmitoyl])SKYLDKRAAEDFVQWLLDT-NH2; lactam 16-20; N-terminus assumed)
hGCGR/hGLPIR (hTone): 0.8

CCCCCCCCCCCCCCCC(=O)N[C@@H](CCC(=O)N[C@@H](CCC(=O)NCCCC[C@H](NC(=O)[C@H](CC(=O)O)NC(=O)[C@H](CO)NC(=O)[C@@H](NC(=O)[C@H](Cc1ccccc1)NC(=O)[C@@H](NC(=O)CNC(=O)[C@H](CCC(N)=O)NC(=O)[C@@H](CO)NC(=O)[C@@H](N)Cc1c[nH]cn1)[C@@H](C)O)[C@@H](C)O)C(=O)N[C@@H](CO)C(=O)N[C@@H](CCCCN)C(=O)N[C@@H](Cc1ccc(O)cc1)C(=O)N[C@@H](CC(C)C)C(=O)N[C@@H](CC(=O)O)C(=O)N[C@@H](CCC(=O)O)C(=O)N[C@@H](CCCNC(=N)N)C(=O)N[C@@H](C)C(=O)N[C@@H](C)C(=O)N[C@H]1CCCCNC(=O)CC[C@@H](C(=O)N[C@@H](Cc2c[nH]c3ccccc23)C(=O)N[C@@H](CC(C)C)C(=O)N[C@@H](CC(C)C)C(=O)N[C@@H](CC(=O)O)C(=O)N[C@H](C(N)=O)[C@@H](C)O)NC(=O)[C@H](C(C)C)NC(=O)[C@H](Cc2ccccc2)NC(=O)[C@H](CC(=O)O)NC1=O)C(=O)O)C(=O)O [SEQ ID NO: 8] (H-H[dS]QGTFTSDK([γGlu-γGlu-Palmitoyl])SKYLDERAAKDFVEWLLDT-NH2; lactam 20-24; N-terminus assumed)
hGCGR/hGLPIR (hTone): 0.84
